Counter-ions that a name gives are not always drawn.
Columns and labels:
[1] = test system: passive cutaneous anaphylaxis; assay: PCA test on the rat, intravenous administration just before challenge with antigen; assay type: in vivo, rat (male Sprague Dawley); conditions: for ED50: read-out: ED50 (conf. lim) P = 0.05
Method: (§1) The serum, obtained from rats actively sensitized with ovalbumin (antigen) and suitably diluted, was injected intradermically into the shaven back of male Sprague Dawley rats (2 wheals per rat).
(§2) The rats were treated intravenously after 24 hours with a solution of ovalbumin and Evans blue. Thirty minutes later they were killed and the diameter and intensity of the blue ring formed at the site of the intradermic injection were measured.
(§3) For each treated group (5 per group) the % inhibition was then calculated with respect to the control group.
The pharmacological screening was effected by administering the compounds of the present invention intravenously and orally.
(§4) For intravenous administration (2 ml/kg), those compounds in which R1 =H (see formula I) were dissolved in an aqueous 1% NaHCO3 solution whereas for oral administration (4 ml/Kg) they were either suspended in 0.5% carboxymethylcellulose or dissolved in an aqueous 3% NaHCO3 solution.

[2] = test system: passive cutaneous anaphylaxis; assay: PCA test on the rat, oral administration before challenge with antigen; assay type: in vivo, rat (male Sprague Dawley); conditions: for inhibition in vivo at 10 mg/kg / inhibition in vivo at 30 mg/kg / inhibition in vivo at 3 mg/kg: read-out: inhibition (%); for ED50: 5 min, Table 2, oral administration, read-out: ED50 (conf. lim) P = 0.05; for ED50 OS/ED50 iv: oral 5 minutes before challenge / i.v. immediately before challenge; for inhibition (%): oral
Method: The serum, obtained from rats actively sensitized with ovalbumin (antigen) and suitably diluted, was injected intradermically into the shaven back of male Sprague Dawley rats (2 wheals per rat). The rats were treated intravenously after 24 hours with a solution of ovalbumin and Evans blue. Thirty minutes later they were killed and the diameter and intensity of the blue ring formed at the site of the intradermic injection were measured. […] The pharmacological screening was effected by administering the compounds of the present invention intravenously and orally. For intravenous administration (2 ml/kg), those compounds in which R1 =H (see formula I) were dissolved in an aqueous 1% NaHCO3 solution whereas for oral administration (4 ml/Kg) they were either suspended in 0.5% carboxymethylcellulose or dissolved in an aqueous 3% NaHCO3 solution.

[3] = test system: passive cutaneous anaphylaxis; assay: PCA test on the rat, time response curve after oral administration; assay type: in vivo, rat (male Sprague Dawley); conditions: Rattus norvegicus, oral; for inhibition in vivo at 30 mg/kg: 30 mg/kg/os, read-out: inhibition %; for inhibition in vivo at 1 mg/kg: 1 mg/kg/os
Method: as §1, §2, §3, §4

[4] = Acute toxicity in the mouse, oral administration; assay type: in vivo; conditions: mouse, in vivo, po, 1000 mg/kg, oral, 1000 mg/kg/os; read-out: mortality (%EAD)
Method: (§5) Acute toxicity was evaluated in the mouse by administering the compounds orally at scalar doses to a maximum of 1000 mg/kg to evaluate the 50% lethal dose (LD50). The compounds were administered in carboxymethylcellulose (0.5%) in a volume of […] to male mice (Swiss stock) of average weight 20 g.

[5] = test system: mouse; assay: Acute toxicity in the mouse, oral administration; assay type: in vivo
Method: as §5

[6] = Rattus norvegicus, iv, 1 mg/kg, immediately before challenge, read-out: inhibition (%)
[7] = Rattus norvegicus, iv, 3 mg/kg, immediately before challenge
[8] = Rattus norvegicus, iv, 10 mg/kg, immediately before challenge
[9] = Rattus norvegicus, iv, immediately before challenge
[10] = Rattus norvegicus, po, 10 mg/kg, 5 minutes before challenge
[11] = Rattus norvegicus, po, 30 mg/kg, 5 minutes before challenge
[12] = Rattus norvegicus, po, 5 minutes before challenge
[13] = 3 mg/kg, 5 minutes before challenge
[14] = 5 min, 5 minutes before challenge
[15] = 0.25 h, 15 minutes before challenge
[16] = 0.5 h, 30 minutes before challenge
[17] = 1 h, 60 minutes before challenge
[18] = 2 h, 120 minutes before challenge
[19] = Rattus norvegicus, po, 3 mg/kg, 5 minutes before challenge

Row | Structure (SMILES) | inhibition in vivo at 1 mg/kg [1, 6] | inhibition in vivo at 3 mg/kg [1, 7] | inhibition in vivo at 10 mg/kg [1, 8] | ED50 [1, 9] | inhibition in vivo at 10 mg/kg [2, 10] | inhibition in vivo at 30 mg/kg [2, 11] | ED50 [2, 12] | ED50 OS/ED50 iv [2] | inhibition (%) [2, 13] | inhibition in vivo at 30 mg/kg [3, 14] | inhibition in vivo at 30 mg/kg [3, 15] | inhibition in vivo at 30 mg/kg [3, 16] | inhibition in vivo at 30 mg/kg [3, 17] | inhibition in vivo at 30 mg/kg [3, 18] | mortality [4] | No. (dead) ([5]; mouse, in vivo, po, 1000 mg/kg) | No. (dead) ([5]; oral, 1000 mg/kg/os, 8 treated) | inhibition in vivo at 3 mg/kg [2, 19] | inhibition in vivo at 30 mg/kg [1, 9] | also measured
1 | Cc1ccc(/C=C/C(=O)Nc2nn[nH]n2)s1 [VAL 47-005, N-1H-tetrazol-5-yl-[3-[5-methyl-(2-thienyl)]] acrylamide trans isomer] | 20.3% | 43.4% | 89.4% | 2.99 mg/kg | 43.8% | 75.3% | 12.4 mg/kg | 4.13 | 9.6% | 75.5% | 61.4% | 37.5% | 0% | 11.4% | 0% | 0 |  |  |  | 
2 | Cc1ccc(/C=C/C(=O)Nc2nn[nH]n2)s1 [VAL 47-005Na, N-1H-tetrazol-5-yl-[3-[5-methyl-(2-thienyl)]] acrylamide sodium salt trans isomer] |  |  |  |  |  |  |  |  | 26.7% |  |  |  |  |  |  |  | 0 |  |  | inhibition (%) ([1]; i.v., 1 mg/kg, immediately before challenge): 16.5%; inhibition (%) ([1]; i.v., 3 mg/kg, immediately before challenge): 40.7%; inhibition (%) ([1]; i.v., 10 mg/kg, immediately before challenge): 78.0%; ED50 (conf. lim) P = 0.05 ([1]; i.v., immediately before challenge): 3.74 (2.89-4.85) mg/kg/iv; inhibition (%) ([2]; 10 mg/kg, 5 minutes before challenge): 54.7%; inhibition (%) ([2]; 30 mg/kg, 5 minutes before challenge): 65.8%; mortality (%EAD) ([5]; oral, 1000 mg/kg/os): 0%
3 | Cc1ccc(/C=C\C(=O)Nc2nn[nH]n2)s1 [VAL 47-005cis, N-1H-tetrazol-5-yl-[3-[5-methyl-(2-thienyl)]]acrylamide cis isomer] | 54.6% | 82.9% |  | 0.89 mg/kg |  |  | 0.78 mg/kg | 0.88 |  |  |  |  |  |  | 0% | 0 |  | 94.5% |  | inhibition in vivo at 0.3 mg/kg ([1]; Rattus norvegicus, iv, 0.3 mg/kg, immediately before challenge, read-out: inhibition (%)): 18%; activity greater than its trans isomer (VAL 47-005) ([1]; i.v., ratio of ED50): about 3 times; inhibition in vivo at 0.3 mg/kg ([2]; Rattus norvegicus, po, 0.3 mg/kg, 5 minutes before challenge): 23.6%; inhibition in vivo at 1 mg/kg ([2]; Rattus norvegicus, po, 1 mg/kg, 5 minutes before challenge): 51.1%; inhibition in vivo at 1 mg/kg [3, 14]: 52.4%; inhibition in vivo at 1 mg/kg [3, 15]: 27.5%; inhibition in vivo at 1 mg/kg [3, 16]: 20.6%; inhibition in vivo at 1 mg/kg [3, 17]: 19.6%; inhibition in vivo at 1 mg/kg [3, 18]: 2.1%; toxicity (in words) ([5]; oral, mouse): do not determine any toxic effect
4 | O=C(/C=C/c1ccc(Br)s1)Nc1nn[nH]n1 [VAL 47-008, N-1H-tetrazol-5-yl-[3-[5-bromo-(2-thienyl)]]-acrylamide trans isomer] | 0% | 8.6% | 31.9% | 12.8 mg/kg | 26.9% | 43.7% |  |  |  | 37.7% | 16% | 10.9% | 3.4% | 2.3% | 0% |  | 0 | 32.5% | 82.3% | 
5 | O=C(/C=C/c1ccco1)Nc1nn[nH]n1 [VAL 47-010, N-1H-tetrazol-5-yl-[3-(2-furyl)]-acrylamide trans isomer] | 29% | 40.2% | 84.1% | 3.13 mg/kg | 35.9% | 80.9% | 12.4 mg/kg | 3.95 |  | 51.4% | 44.8% | 21.9% | 6.6% | 18.6% | 25% | 2 |  | 9.6% | 95.3% | 
